# Reference: paper PMC7906907, “Targeting STAT3 by a small molecule suppresses pancreatic cancer progression” (Oncogene, 2021)
# Key:
# normal cells (HPNE, HAF) = experiment: MTS proliferation assay, normal cells; format: cell-based; conditions: 48 h
# Procedure: (§1) Fig. 4 N4 suppresses pancreatic cancer cell proliferation and migration and induces apoptosis. A Pancreatic cancer cells (CAPAN-2, PANC-1, MIAPACA-2, BXPC-3, HPAC, and CFPAC-1) and normal cells (HPNE, HAF) were incubated with the indicated concentration of N4 for 48 h. MTS assays were performed to detect the N4-mediated inhibition of cell proliferation. Data are shown as mean ± SD, *P < 0.05, **P < 0.01, ***P < 0.001, ****P < 0.0001, n.s. not significant by one-way ANOVA followed by multiple comparisons. B, C CAPAN-2, PANC-1, and MIAPACA-2 cells were treated with N4 (B) or C188-9 (C) for 7 days. The cells fixed and stained, and colony numbers were calculated. Experiments were carried out in triplicate with identical results obtained. […] Apoptotic cells were analyzed as described in Materials and Methods. […] In F, after 48 h transfection, transfected cells were seeded in 96-well plates, and cells were enumerated at day 1, day 2, and day 4, In G, different cells transfected with different siRNA were treated with the indicated concentrations of N4, and cell viability measured after a 48 h treatment. Data are expressed as mean ± SD, *P < 0.05, ***P < 0.001, n.s. not significant by one-way ANOVA followed by multiple comparisons. […] Data are expressed as mean ± SD, *P < 0.05, ***P < 0.001, n.s. not significant; Student’s t tests were performed. […]
# [1] = tested on: Pancreatic cancer cells (CAPAN-2, PANC-1, MIAPACA-2, BXPC-3, HPAC, and CFPAC-1); experiment: MTS proliferation assay, pancreatic cancer cells; format: cell-based; conditions: 48 h
# Procedure: as §1
# PANC-1 = PANC-1 subcutaneous tumor growth xenograft model; format: in vivo
# Procedure: Fig. 5 N4 suppresses pancreatic cancer growth in vivo. PANC-1 cells were injected into the right flank of BALB/c-nude mice. After the volume of tumor nodules reached 200–300 mm^3, the mice were randomly assigned to the indicated groups and were injected intraperitoneally daily with vehicle (n = 7), 40 mg/kg/d C188-9 (n = 7), 10 mg/kg/d N4 (n = 8), or 20 mg/kg/d N4 (n = 8). The mice were sacrificed after treatment for 20 days and the tumors from each group of mice were excised. A, B Tumor volumes were measured every 4 days. Tumor volumes were calculated by the formula: length × width^2 × 0.52. […] C After treatment for 20 days, the tumors from each group of mice were excised and photographed. D After the experiments, all the tumors were weighted. […] E Tumor samples were collected, and protein was extracted for western blot analysis. p-STAT3 (Y705), p-STAT3(S727), STAT3, and CMYC were detected, with GAPDH used as the loading control. Immunohistochemistry examinations were performed in the different treatment groups, p-STAT3 (Y705), Ki-67 and cleaved caspase3 were quantified (F) and photographed (G). The scale bar denotes 20 μm. Data are expressed as mean ± SD, **P < 0.01, ****P < 0.0001 and n.s. not significant by one-way ANOVA.
# BALB/c-nude, male, 6–8-week-old mice were obtained from the Animal Center of East China Normal University. All animal experimental protocols were approved by the Animal Investigation Committee of the Institute of Biomedical Sciences, East China Normal University. PANC-1 cells (5 × 10^6) were suspended in PBS with 50% Matrigel and injected into the right flank of the mice. Treatment began after the tumor nodules reached 150–250 mm^3 in volume. The tumor-bearing mice were randomly assigned to four groups and treated with the indicated compounds. The tumor volume and mice body weight were measured after 4 days. The tumor volume (V) was calculated as length × width × width × 0.52. At the end of experiment, the mice were sacrificed. Solid tumors were removed and processed for immunohistochemistry analysis.
smiles,measurement,setting,value
COc1cc2c(cc1C(=O)Nc1cccc3cccnc13)CCC1C(C)(C)C(=O)C(C#N)=C[C@]21C (some centres unmarked) [N4],effect on two normal cell types,"normal cells (HPNE, HAF)",no significant effect
same,proliferation of pancreatic cancer cells,[1],effectively inhibited
same,bodyweight of mice,PANC-1; 10 and 20 mg/kg/d,did not affect
same,pancreatic cancer growth (tumor volume),"PANC-1; 10 and 20 mg/kg/d, intraperitoneally daily, 20 days",significantly inhibited
same,"Hematoxylin and eosin staining of main organs, signs of toxicity","PANC-1; mouse, in vivo",did not produce morphological signs of toxicity
